Laboratory results from the kinase profiling compilation of Christmann-Franck et al. (2016).

Key:
Experiment in all cases: radiometric filter-binding kinase assay
IRAK4 (human) = IRAK4 (human) (UniProt Q9NWZ3); settings: compound 0.1 µM
MARK4 (human) = MARK4 (human) (UniProt Q96L34)
JAK2 JH1 JH2 (human) = JAK2 JH1 JH2 (human) (UniProt O60674)
BTK (human) = BTK (human) (UniProt Q06187)
CSNK1D (human) = CSNK1D (human) (UniProt P48730)
CSNK2A1 (human) = CSNK2A1 (human) (UniProt P68400)
[1] = molecular target: STK11 CAB39 STRADA (human) (UniProt Q9Y376+Q7RTN6+Q15831)
MAPK14 (human) = MAPK14 (human) (UniProt Q16539)
MAPK14 (human), sequence (Q16539 whole entry, looked up): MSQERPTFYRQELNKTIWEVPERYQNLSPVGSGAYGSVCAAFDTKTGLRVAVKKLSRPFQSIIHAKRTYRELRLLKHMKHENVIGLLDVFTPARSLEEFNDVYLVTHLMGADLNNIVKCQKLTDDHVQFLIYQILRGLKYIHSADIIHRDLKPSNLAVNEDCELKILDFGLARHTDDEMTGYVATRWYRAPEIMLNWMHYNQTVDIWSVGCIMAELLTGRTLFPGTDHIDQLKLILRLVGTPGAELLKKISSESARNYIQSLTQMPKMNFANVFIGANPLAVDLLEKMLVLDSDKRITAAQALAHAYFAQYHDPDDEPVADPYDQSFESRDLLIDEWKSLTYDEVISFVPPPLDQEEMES

RPS6KA5 KD1 KD2 (human) = RPS6KA5 KD1 KD2 (human) (UniProt O75582)
NEK2 (human) = NEK2 (human) (UniProt P51955)
NEK2 (human), sequence (P51955 whole entry, looked up): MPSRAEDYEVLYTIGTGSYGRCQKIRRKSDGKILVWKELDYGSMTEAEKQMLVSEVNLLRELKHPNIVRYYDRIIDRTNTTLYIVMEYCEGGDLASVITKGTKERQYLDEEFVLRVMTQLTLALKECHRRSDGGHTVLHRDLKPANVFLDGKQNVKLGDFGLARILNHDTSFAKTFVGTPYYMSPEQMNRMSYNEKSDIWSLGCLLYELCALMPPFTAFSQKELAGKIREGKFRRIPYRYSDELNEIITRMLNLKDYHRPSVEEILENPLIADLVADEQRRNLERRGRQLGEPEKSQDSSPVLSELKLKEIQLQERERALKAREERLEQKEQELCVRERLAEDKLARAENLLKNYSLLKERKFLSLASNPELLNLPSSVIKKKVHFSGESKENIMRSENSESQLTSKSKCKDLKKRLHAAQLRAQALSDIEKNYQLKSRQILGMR

CLK2 (human) = CLK2 (human) (UniProt P49760)
YES1 (human) = YES1 (human) (UniProt P07947)
MAPKAPK3 (human) = MAPKAPK3 (human) (UniProt Q16644)
FLT1 (human) = FLT1 (human) (UniProt P17948)
AURKA (human) = AURKA (human) (UniProt O14965)
RIPK2 (human) = RIPK2 (human) (UniProt O43353)
MKNK2 (human) = MKNK2 (human) (UniProt Q9HBH9)
MAPK15 (human) = MAPK15 (human) (UniProt Q8TD08)
MAP3K9 (human) = MAP3K9 (human) (UniProt P80192)
SRPK1 (human) = SRPK1 (human) (UniProt Q96SB4)
MAP3K1 (human) = MAP3K1 (human) (UniProt Q13233)
MAP3K1 (human), sequence (Q13233 whole entry, looked up): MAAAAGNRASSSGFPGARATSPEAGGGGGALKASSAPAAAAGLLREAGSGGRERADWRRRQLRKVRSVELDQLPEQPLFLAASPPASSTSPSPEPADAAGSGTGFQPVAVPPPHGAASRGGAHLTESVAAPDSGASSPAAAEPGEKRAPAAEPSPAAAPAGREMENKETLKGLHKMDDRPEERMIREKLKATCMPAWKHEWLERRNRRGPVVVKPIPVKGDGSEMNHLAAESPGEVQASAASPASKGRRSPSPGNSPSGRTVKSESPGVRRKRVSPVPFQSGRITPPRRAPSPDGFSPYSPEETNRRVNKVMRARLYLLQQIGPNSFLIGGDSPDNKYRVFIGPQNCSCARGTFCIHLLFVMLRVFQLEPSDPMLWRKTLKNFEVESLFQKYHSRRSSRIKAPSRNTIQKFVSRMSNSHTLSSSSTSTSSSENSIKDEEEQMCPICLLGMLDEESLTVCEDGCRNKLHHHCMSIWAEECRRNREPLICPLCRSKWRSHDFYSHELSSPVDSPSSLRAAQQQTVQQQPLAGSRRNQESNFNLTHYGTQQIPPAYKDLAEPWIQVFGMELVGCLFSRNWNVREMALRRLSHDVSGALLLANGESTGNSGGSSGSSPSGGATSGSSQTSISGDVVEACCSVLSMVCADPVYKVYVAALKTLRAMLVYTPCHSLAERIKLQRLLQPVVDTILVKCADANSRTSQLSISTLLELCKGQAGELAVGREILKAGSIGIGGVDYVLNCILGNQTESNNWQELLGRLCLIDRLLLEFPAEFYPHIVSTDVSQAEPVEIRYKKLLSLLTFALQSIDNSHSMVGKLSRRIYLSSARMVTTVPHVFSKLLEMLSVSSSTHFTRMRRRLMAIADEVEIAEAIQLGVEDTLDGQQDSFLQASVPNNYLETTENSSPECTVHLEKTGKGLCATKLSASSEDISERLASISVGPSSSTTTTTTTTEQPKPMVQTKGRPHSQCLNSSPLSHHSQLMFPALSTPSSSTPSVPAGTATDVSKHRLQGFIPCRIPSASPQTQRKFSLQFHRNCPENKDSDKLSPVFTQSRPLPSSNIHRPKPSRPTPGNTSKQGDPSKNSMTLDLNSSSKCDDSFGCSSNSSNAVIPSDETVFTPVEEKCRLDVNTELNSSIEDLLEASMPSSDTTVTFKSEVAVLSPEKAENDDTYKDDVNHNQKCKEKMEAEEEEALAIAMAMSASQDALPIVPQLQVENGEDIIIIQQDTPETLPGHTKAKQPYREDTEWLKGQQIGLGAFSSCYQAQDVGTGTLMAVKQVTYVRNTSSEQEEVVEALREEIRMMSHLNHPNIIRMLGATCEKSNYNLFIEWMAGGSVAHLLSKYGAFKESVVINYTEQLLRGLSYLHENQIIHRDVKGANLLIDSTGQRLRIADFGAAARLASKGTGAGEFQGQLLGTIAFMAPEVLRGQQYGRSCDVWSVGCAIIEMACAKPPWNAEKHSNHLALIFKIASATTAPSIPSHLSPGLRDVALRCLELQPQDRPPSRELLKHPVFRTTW

INSR (human) = INSR (human) (UniProt P06213)
MAPK11 (human) = MAPK11 (human) (UniProt Q15759)
MAPK11 (human), sequence (Q15759 whole entry, looked up): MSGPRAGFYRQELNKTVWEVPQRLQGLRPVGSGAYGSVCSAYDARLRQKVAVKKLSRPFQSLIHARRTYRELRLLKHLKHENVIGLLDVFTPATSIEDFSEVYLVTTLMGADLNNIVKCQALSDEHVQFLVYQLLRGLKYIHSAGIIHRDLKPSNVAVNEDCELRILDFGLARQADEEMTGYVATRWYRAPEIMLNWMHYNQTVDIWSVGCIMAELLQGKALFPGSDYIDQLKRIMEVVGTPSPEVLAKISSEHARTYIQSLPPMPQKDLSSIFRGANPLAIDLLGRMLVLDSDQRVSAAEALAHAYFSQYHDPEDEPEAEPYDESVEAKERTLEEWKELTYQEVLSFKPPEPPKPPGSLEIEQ

MARK3 (human) = MARK3 (human) (UniProt P27448)
MAPK1 (human) = MAPK1 (human) (UniProt P28482)
MAPK1 (human), sequence (P28482 whole entry, looked up): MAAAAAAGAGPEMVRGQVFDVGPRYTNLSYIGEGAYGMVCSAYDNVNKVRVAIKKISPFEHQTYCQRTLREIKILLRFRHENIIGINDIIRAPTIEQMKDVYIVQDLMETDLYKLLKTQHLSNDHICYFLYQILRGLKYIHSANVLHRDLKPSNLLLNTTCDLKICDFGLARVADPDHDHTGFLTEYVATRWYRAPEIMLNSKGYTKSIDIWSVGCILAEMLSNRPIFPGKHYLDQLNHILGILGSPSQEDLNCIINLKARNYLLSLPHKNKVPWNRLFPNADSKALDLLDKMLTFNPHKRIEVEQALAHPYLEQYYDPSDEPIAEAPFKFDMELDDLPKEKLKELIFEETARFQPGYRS

NEK6 (human) = NEK6 (human) (UniProt Q9HC98)
HIPK1 (human) = HIPK1 (human) (UniProt Q86Z02)
HIPK1 (human), sequence (Q86Z02 whole entry, looked up): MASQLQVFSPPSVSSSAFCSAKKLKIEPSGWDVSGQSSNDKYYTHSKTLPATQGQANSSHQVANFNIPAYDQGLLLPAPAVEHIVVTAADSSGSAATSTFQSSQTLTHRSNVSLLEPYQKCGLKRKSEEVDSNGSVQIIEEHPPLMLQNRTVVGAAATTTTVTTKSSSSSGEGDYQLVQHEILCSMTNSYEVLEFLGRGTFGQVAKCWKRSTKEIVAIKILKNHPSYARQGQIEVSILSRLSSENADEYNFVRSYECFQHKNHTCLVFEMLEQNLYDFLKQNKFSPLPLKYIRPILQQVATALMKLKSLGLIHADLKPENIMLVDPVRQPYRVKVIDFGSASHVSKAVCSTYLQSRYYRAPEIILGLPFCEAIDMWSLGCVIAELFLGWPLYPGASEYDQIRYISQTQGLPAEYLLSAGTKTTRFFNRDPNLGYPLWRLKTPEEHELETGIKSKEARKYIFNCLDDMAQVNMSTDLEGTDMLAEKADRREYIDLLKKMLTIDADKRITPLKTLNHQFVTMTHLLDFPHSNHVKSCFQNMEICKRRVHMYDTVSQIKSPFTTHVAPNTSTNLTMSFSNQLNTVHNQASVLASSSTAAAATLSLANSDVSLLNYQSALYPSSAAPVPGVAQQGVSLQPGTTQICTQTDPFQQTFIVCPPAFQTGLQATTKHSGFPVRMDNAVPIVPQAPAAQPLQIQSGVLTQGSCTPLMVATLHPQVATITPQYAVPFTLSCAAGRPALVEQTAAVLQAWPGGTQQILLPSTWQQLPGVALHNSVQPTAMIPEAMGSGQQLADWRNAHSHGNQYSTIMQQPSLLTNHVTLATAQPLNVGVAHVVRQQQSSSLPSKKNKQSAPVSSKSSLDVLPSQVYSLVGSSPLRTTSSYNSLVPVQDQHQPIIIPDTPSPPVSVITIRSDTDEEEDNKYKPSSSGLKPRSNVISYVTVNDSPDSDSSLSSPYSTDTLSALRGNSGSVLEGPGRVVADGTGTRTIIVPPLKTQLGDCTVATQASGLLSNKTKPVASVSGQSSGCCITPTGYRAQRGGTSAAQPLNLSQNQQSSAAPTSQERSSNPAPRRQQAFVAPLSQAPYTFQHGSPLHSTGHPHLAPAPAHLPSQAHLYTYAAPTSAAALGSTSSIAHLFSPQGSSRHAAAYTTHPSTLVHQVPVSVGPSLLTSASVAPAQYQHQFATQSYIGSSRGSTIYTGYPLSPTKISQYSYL

PRKCA (human) = PRKCA (human) (UniProt P17252)
NTRK1 (human) = NTRK1 (human) (UniProt P04629)
INSRR (human) = INSRR (human) (UniProt P14616)
HIPK2 (human) = HIPK2 (human) (UniProt Q9H2X6)
[2] = tested on: RPS6KB1 (human), P23443 [T412E]
RPS6KB1 (human), P23443 [T412E], sequence (P23443 whole entry T412E, looked up): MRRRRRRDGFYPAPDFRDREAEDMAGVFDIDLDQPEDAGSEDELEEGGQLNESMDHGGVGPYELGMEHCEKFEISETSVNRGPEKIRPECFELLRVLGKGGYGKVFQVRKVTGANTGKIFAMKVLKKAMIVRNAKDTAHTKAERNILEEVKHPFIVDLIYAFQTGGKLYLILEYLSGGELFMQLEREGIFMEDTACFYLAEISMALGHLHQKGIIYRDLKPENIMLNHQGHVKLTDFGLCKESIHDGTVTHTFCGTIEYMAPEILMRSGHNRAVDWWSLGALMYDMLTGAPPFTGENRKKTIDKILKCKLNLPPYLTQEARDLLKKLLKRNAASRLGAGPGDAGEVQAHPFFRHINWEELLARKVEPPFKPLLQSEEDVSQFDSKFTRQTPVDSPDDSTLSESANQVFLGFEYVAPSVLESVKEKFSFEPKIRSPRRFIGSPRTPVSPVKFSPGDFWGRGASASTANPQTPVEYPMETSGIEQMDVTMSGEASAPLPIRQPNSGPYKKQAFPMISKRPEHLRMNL

DYRK2 (human) = DYRK2 (human) (UniProt Q92630)
RPS6KA1 KD1 KD2 (human) = RPS6KA1 KD1 KD2 (human) (UniProt Q15418)
[3] = tested on: AKT2 (human), P31751 [S474D]

O=C(N[C@@H](COc1ccc2[nH]c(=O)[nH]c2c1)c1ccccc1)c1cccn(Cc2ccc(F)c(F)c2)c1=O
residual activity (IRAK4 (human)): 110% | residual activity (MARK4 (human); compound 0.1 µM): 150% | residual activity (MARK4 (human); compound 1.0 µM): 143% | residual activity (MARK4 (human); compound 10.0 µM): 83% | residual activity (JAK2 JH1 JH2 (human); compound 0.1 µM): 98% | residual activity (JAK2 JH1 JH2 (human); compound 1.0 µM): 99% | residual activity (JAK2 JH1 JH2 (human); compound 10.0 µM): 101% | residual activity (BTK (human); compound 0.1 µM): 109% | residual activity (BTK (human); compound 1.0 µM): 108% | residual activity (BTK (human); compound 10.0 µM): 110% | residual activity (CSNK1D (human); compound 0.1 µM): 103% | residual activity (CSNK1D (human); compound 1.0 µM): 110% | residual activity (CSNK1D (human); compound 10.0 µM): 113% | residual activity (CSNK2A1 (human); compound 0.1 µM): 111% | residual activity (CSNK2A1 (human); compound 1.0 µM): 103% | residual activity (CSNK2A1 (human); compound 10.0 µM): 107% | residual activity ([1]; compound 0.1 µM): 102% | residual activity ([1]; compound 1.0 µM): 100% | residual activity ([1]; compound 10.0 µM): 93% | residual activity (MAPK14 (human); compound 0.1 µM): 114% | residual activity (MAPK14 (human); compound 1.0 µM): 121% | residual activity (MAPK14 (human); compound 10.0 µM): 114% | residual activity (RPS6KA5 KD1 KD2 (human); compound 0.1 µM): 101% | residual activity (RPS6KA5 KD1 KD2 (human); compound 1.0 µM): 104% | residual activity (RPS6KA5 KD1 KD2 (human); compound 10.0 µM): 106% | residual activity (NEK2 (human); compound 0.1 µM): 107% | residual activity (NEK2 (human); compound 1.0 µM): 97% | residual activity (NEK2 (human); compound 10.0 µM): 96% | residual activity (CLK2 (human); compound 0.1 µM): 106% | residual activity (CLK2 (human); compound 1.0 µM): 95% | residual activity (CLK2 (human); compound 10.0 µM): 74% | residual activity (YES1 (human); compound 0.1 µM): 104% | residual activity (YES1 (human); compound 1.0 µM): 105% | residual activity (YES1 (human); compound 10.0 µM): 95% | residual activity (MAPKAPK3 (human); compound 0.1 µM): 116% | residual activity (MAPKAPK3 (human); compound 1.0 µM): 109% | residual activity (MAPKAPK3 (human); compound 10.0 µM): 74% | residual activity (FLT1 (human); compound 0.1 µM): 106% | residual activity (FLT1 (human); compound 1.0 µM): 100% | residual activity (AURKA (human); compound 0.1 µM): 110% | residual activity (AURKA (human); compound 1.0 µM): 110% | residual activity (AURKA (human); compound 10.0 µM): 103% | residual activity (RIPK2 (human); compound 0.1 µM): 102% | residual activity (RIPK2 (human); compound 1.0 µM): 105% | residual activity (RIPK2 (human); compound 10.0 µM): 98% | residual activity (MKNK2 (human); compound 0.1 µM): 117% | residual activity (MKNK2 (human); compound 10.0 µM): 112% | residual activity (MAPK15 (human); compound 0.1 µM): 92% | residual activity (MAPK15 (human); compound 1.0 µM): 89% | residual activity (MAPK15 (human); compound 10.0 µM): 94% | residual activity (MAP3K9 (human); compound 0.1 µM): 119% | residual activity (MAP3K9 (human); compound 1.0 µM): 102% | residual activity (MAP3K9 (human); compound 10.0 µM): 50% | residual activity (SRPK1 (human); compound 0.1 µM): 107% | residual activity (SRPK1 (human); compound 1.0 µM): 114% | residual activity (SRPK1 (human); compound 10.0 µM): 101% | residual activity (MAP3K1 (human); compound 0.1 µM): 110% | residual activity (MAP3K1 (human); compound 1.0 µM): 114% | residual activity (MAP3K1 (human); compound 10.0 µM): 112% | residual activity (INSR (human); compound 0.1 µM): 99% | residual activity (INSR (human); compound 1.0 µM): 95% | residual activity (INSR (human); compound 10.0 µM): 93% | residual activity (MAPK11 (human); compound 0.1 µM): 100% | residual activity (MAPK11 (human); compound 1.0 µM): 110% | residual activity (MAPK11 (human); compound 10.0 µM): 115% | residual activity (MARK3 (human); compound 0.1 µM): 99% | residual activity (MARK3 (human); compound 1.0 µM): 93% | residual activity (MARK3 (human); compound 10.0 µM): 83% | residual activity (MAPK1 (human); compound 0.1 µM): 102% | residual activity (MAPK1 (human); compound 1.0 µM): 100% | residual activity (MAPK1 (human); compound 10.0 µM): 101% | residual activity (NEK6 (human); compound 0.1 µM): 104% | residual activity (NEK6 (human); compound 1.0 µM): 100% | residual activity (NEK6 (human); compound 10.0 µM): 98% | residual activity (HIPK1 (human); compound 0.1 µM): 99% | residual activity (HIPK1 (human); compound 1.0 µM): 100% | residual activity (HIPK1 (human); compound 10.0 µM): 86% | residual activity (PRKCA (human); compound 0.1 µM): 99% | residual activity (PRKCA (human); compound 1.0 µM): 91% | residual activity (PRKCA (human); compound 10.0 µM): 96% | residual activity (NTRK1 (human); compound 0.1 µM): 113% | residual activity (NTRK1 (human); compound 1.0 µM): 98% | residual activity (NTRK1 (human); compound 10.0 µM): 78% | residual activity (INSRR (human); compound 0.1 µM): 101% | residual activity (INSRR (human); compound 1.0 µM): 114% | residual activity (INSRR (human); compound 10.0 µM): 105% | residual activity (HIPK2 (human); compound 0.1 µM): 92% | residual activity (HIPK2 (human); compound 1.0 µM): 96% | residual activity (HIPK2 (human); compound 10.0 µM): 90% | residual activity ([2]; compound 0.1 µM): 103% | residual activity ([2]; compound 1.0 µM): 97% | residual activity ([2]; compound 10.0 µM): 98% | residual activity (DYRK2 (human); compound 0.1 µM): 110% | residual activity (DYRK2 (human); compound 1.0 µM): 101% | residual activity (DYRK2 (human); compound 10.0 µM): 83% | residual activity (RPS6KA1 KD1 KD2 (human); compound 0.1 µM): 95% | residual activity (RPS6KA1 KD1 KD2 (human); compound 1.0 µM): 93% | residual activity (RPS6KA1 KD1 KD2 (human); compound 10.0 µM): 114% | residual activity ([3]; compound 0.1 µM): 98% | residual activity ([3]; compound 1.0 µM): 96% | residual activity ([3]; compound 10.0 µM): 77%
